Patent publication US20080306076A1, “MODULATION OF CHEMOSENSORY RECEPTORS AND LIGANDS ASSOCIATED THEREWITH” (SENOMYX, INC., priority 2007, published 2008)

What was measured:
hT1R1/hT1R3 = biological target: T1, hT1R1/hT1R3 (Homo sapiens, UniProt Q7RTX1); assay: In vitro hT1R1/hT1R3 enhancement assay (FLIPR): shift of the monosodium glutamate EC50 (EC50R); type: cell-based; conditions: EC50 of monosodium glutamate without / with test compound
T1 construct: expressed in transfected cells; host or cells: HEK293 derivative stably expressing Gα15, clone I-17, mifepristone-induced
T1 sequence (Q7RTX1 21-841): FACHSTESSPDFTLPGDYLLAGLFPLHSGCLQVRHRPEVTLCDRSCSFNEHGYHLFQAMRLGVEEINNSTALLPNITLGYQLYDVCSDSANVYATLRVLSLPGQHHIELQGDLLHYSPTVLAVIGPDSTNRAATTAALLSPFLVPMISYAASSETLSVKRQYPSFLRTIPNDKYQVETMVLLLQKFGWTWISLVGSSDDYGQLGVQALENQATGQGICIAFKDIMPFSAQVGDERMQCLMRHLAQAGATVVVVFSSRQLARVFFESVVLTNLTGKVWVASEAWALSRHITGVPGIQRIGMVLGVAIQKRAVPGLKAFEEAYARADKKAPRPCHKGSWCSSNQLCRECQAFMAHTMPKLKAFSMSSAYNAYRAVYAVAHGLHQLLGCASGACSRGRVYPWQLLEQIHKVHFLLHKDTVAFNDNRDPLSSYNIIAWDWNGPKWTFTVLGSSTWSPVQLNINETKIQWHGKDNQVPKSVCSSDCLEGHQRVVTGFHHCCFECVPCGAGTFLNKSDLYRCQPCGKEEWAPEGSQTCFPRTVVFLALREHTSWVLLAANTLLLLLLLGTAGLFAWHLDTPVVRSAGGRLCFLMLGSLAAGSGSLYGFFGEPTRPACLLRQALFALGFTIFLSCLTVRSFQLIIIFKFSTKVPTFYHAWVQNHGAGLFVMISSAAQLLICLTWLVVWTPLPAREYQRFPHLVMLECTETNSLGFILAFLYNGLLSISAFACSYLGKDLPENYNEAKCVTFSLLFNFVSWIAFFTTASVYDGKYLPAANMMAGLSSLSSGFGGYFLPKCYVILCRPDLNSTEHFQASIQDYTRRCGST
T1 sequence (Q7RTX0 21-852 partner): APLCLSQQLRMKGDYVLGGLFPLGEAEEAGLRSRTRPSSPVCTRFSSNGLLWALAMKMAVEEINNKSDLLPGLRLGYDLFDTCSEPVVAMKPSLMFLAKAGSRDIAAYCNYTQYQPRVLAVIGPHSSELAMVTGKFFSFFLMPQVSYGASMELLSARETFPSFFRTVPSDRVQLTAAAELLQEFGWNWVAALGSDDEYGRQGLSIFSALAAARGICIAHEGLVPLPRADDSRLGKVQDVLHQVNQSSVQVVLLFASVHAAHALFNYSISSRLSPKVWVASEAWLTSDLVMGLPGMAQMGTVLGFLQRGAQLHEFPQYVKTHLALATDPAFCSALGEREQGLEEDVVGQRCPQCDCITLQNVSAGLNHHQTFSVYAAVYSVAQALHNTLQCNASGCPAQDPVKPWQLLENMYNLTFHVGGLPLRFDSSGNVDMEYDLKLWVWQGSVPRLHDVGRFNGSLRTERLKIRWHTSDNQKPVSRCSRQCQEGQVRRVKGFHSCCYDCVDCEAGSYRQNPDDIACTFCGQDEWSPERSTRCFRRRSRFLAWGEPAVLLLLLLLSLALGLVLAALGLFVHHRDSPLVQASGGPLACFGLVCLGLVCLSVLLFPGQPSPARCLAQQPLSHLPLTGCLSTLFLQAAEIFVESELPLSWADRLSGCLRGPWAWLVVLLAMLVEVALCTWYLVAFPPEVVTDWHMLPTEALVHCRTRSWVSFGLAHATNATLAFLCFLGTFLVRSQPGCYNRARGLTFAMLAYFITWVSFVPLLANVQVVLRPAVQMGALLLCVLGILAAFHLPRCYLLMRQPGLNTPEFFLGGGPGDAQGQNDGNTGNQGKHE
Procedure: An HEK293 cell line derivative (See e.g., Chandrashekar, et al., Cell (2000) 100: 703-711) which stably expresses Gα15 and hT1R1/hT1R3 under an inducible promoter (see e.g., International Publication No. WO 03/001876 A2) was used in association with identifying compounds with umami tasting properties.
Compounds were initially selected based on activity in the hT1R1/hT1R3-HEK293-Gα15 cell line. Activity was determined using an automated fluorometric imaging assay on a FLIPR instrument (Fluorometric Intensity Plate Reader, Molecular Devices, Sunnyvale, Calif.) (designated FLIPR assay). Cells from one clone (designated clone I-17) were seeded into 384-well plates (at approximately 48,000 cells per well) in a medium containing Dulbecco's modified Eagle's medium (DMEM) supplemented with GlutaMAX (Invitrogen, Carlsbad, Calif.), 10% dialyzed fetal bovine serum (Invitrogen, Carlsbad, Calif.), 100 Units/ml Penicillin G, 100 μg/ml Streptomycin (Invitrogen, Carlsbad, Calif.) and 60 pM mifepristone (to induce expression of hT1R1/hT1R3 (see e.g., International Publication No. WO 03/001876 A2).
I-17 cells were grown for 48 hours at 37° C. 1-17 cells were then loaded with the calcium dye Fluo-3AM (Molecular Probes, Eugene, Oreg.), 4 μM in a phosphate buffered saline (D-PBS) (Invitrogen, Carlsbad, Calif.), for 1.5 hours at room temperature. After replacement with 25 μl D-PBS, stimulation was performed in the FLIPR instrument and at room temperature by the addition of 25 μl D-PBS supplemented with different stimuli at concentrations corresponding to twice the desired final level.
Receptor activity was quantified by determining the maximal fluorescence increases (using a 480 nm excitation and 535 nm emission) after normalization to basal fluorescence intensity measured before stimulation. For dose-responses analysis, stimuli were presented in duplicates at 10 different concentrations ranging from 1.5 nM to 3 μM.
Activities were normalized to the response obtained with 60 mM monosodium glutamate, a concentration that elicits maximum receptor response. EC50s (concentration of compound that causes 50% activation of receptor) were determined using a non-linear regression algorithm, where the Hill slope, bottom asymptotes and top asymptotes were allow to vary. Identical results were obtained when analyzing the dose-response data using commercially available software for non-linear regression analysis such as GraphPad PRISM (San Diego, Calif.).
Experiments were also conducted to determine if test compounds can enhance the effect of monosodium glutamate on hT1R1/hT1R3 activity. In this assay, increasing concentrations of monosodium glutamate (ranging from 12 μM to 81 mM) were presented, in duplicates, in the presence or absence of a fixed concentration of the test compound. Typical compound concentrations tested were 100 μM, 30 μM, 10 μM, 3 μM, 1 μM, 0.3 μM, 0.1 μM and 0.03 μM. The relative efficacy of compounds at enhancing the receptor was determined by the calculating the magnitude of a shift in the EC50 for monosodium glutamate.
Enhancement was defined as a ratio (EC50R) corresponding to the EC50 of monosodium glutamate, determined in the absence of the test compound, divided by the EC50 of monosodium glutamate, determined in the presence of the test compound. In some embodiments, compounds have an EC50R between about 0.7 and about 100. In other embodiments, compounds have an EC50R between about 1.25 and about 75. In still other embodiments, compounds have an EC50R between about 1.50 and about 60. Assay results for compounds are disclosed in the table below.

un-induced I-17 cells = assay: FLIPR assay on un-induced I-17 cells (no receptor expression); type: cell-based; conditions: monosodium glutamate
Procedure: In order to determine the dependency of hT1R1/hT1R3 for the cell response to different stimuli, selected compounds were subjected to a similar analysis on I-17 cells that had not been induced for receptor expression with mifepristone (designated as un-induced I-17 cells). […] Compounds were presented to un-induced umami cells at […]—or three times the maximum stimulation used in the dose-response analysis.

SMILES | EC50 ratio (hT1R1/hT1R3; test compound 30 μM) | EC50 ratio (hT1R1/hT1R3; test compound 100 μM) | functional response in FLIPR assay (un-induced I-17 cells)
O=C(COc1ccccc1)Nc1nc(O)c2ncn([C@@H]3O[C@H](COP(=O)(O)O)[C@@H](O)[C@H]3O)c2n1 [Compound 5] | 1.21 | 2.22 | –
N[C@@H](CCC(=O)O)C(=O)[O-].[Na+] [monosodium glutamate] | – | – | do not show any functional response
COc1ccccc1C(=O)Nc1nc(O)c2ncn([C@@H]3O[C@H](COP(=O)(O)O)[C@@H](O)[C@H]3O)c2n1 [Compound 1] | 1.67 | 12.91 | –
Cc1cccc(C(=O)Nc2nc(O)c3ncn([C@@H]4O[C@H](COP(=O)(O)O)[C@@H](O)[C@H]4O)c3n2)c1 [Compound 4] | 1.07 | 1.19 | –
